Data published in ChEMBL document CHEMBL3885881, “DrugMatrix”.

Organism: Rattus norvegicus
Experiment: DrugMatrix - Regimen: Daily Repeat
Assay type: toxicity, organism-based, Sprague-Dawley
Set-up: regimen Daily Repeat, gender Male, age 6-8 weeks
Conditions: in vivo, po, route oral GAVAGE, […]; for ABSOLUTE BASOPHIL / ABSOLUTE EOSINOPHIL / ABSOLUTE LYMPHOCYTE / ABSOLUTE MONOCYTE / ABSOLUTE SEGMENTED NEUTROPHIL / BASOPHIL / EOSINOPHIL / HEMATOCRIT / HEMOGLOBIN / LEUKOCYTE COUNT / LYMPHOCYTE / MEAN CORPUSCULAR HEMOGLOBIN / MEAN CORPUSCULAR HEMOGLOBIN CONCENTRATION / MEAN CORPUSCULAR VOLUME / MONOCYTE / NEUTROPHIL / NUCLEATED RED BLOOD CELLS / PLATELET COUNT: tissue Blood; for ALANINE AMINOTRANSFERASE / ALBUMIN / ALKALINE PHOSPHATASE / ASPARTATE AMINOTRANSFERASE / BLOOD UREA NITROGEN / CARBON DIOXIDE / CHLORIDE / CHOLESTEROL / CREATINE PHOSPHOKINASE / CREATININE / GLUCOSE / LACTATE DEHYDROGENASE / LIPASE / PHOSPHORUS / POTASSIUM / SODIUM / TOTAL BILIRUBIN / TOTAL PROTEIN / URIC ACID: tissue Plasma
[1] = 1 mg/kg, 72 h, dose level Low, time 3 day
[2] = 1 mg/kg, 120 h, dose level Low, time 5 day
[3] = 21 mg/kg, 72 h, dose level High, time 3 day
[4] = 21 mg/kg, 120 h, dose level High, time 5 day

O=C(CCCN1CCC(O)(c2ccc(Cl)cc2)CC1)c1ccc(F)cc1 [HALOPERIDOL]
ABSOLUTE BASOPHIL [1]: 0 CELLS/uL | ABSOLUTE EOSINOPHIL [1]: 94.33 CELLS/uL | ABSOLUTE LYMPHOCYTE [1]: 11131.67 CELLS/uL | ABSOLUTE MONOCYTE [1]: 120.67 CELLS/uL | ABSOLUTE SEGMENTED NEUTROPHIL [1]: 1053.33 CELLS/uL | BASOPHIL [1]: 0% | EOSINOPHIL [1]: 0.67% | HEMATOCRIT [1]: 33.6% | HEMOGLOBIN [1]: 13.7 G/DL | LEUKOCYTE COUNT [1]: 12.4 x10E3/uL | LYMPHOCYTE [1]: 88.33% | MEAN CORPUSCULAR HEMOGLOBIN [1]: 25.53 pg | MEAN CORPUSCULAR HEMOGLOBIN CONCENTRATION [1]: 40.8 G/DL | MEAN CORPUSCULAR VOLUME [1]: 62.6 fL | MONOCYTE [1]: 1% | NEUTROPHIL [1]: 10% | NUCLEATED RED BLOOD CELLS [1]: 0 /100WBC | PLATELET COUNT [1]: 969 x10E3/uL | ALANINE AMINOTRANSFERASE [1]: 88.67 u/L | ALBUMIN [1]: 3.97 G/DL | ALKALINE PHOSPHATASE [1]: 450 u/L | ASPARTATE AMINOTRANSFERASE [1]: 97.33 u/L | BLOOD UREA NITROGEN [1]: 12.33 mg/dL | CARBON DIOXIDE [1]: 31.67 mmol/L | CHLORIDE [1]: 97 MEQ/L | CHOLESTEROL [1]: 75.67 mg/dL | CREATINE PHOSPHOKINASE [1]: 318.67 u/L | CREATININE [1]: 0.13 mg/dL | GLUCOSE [1]: 163.67 mg/dL | LACTATE DEHYDROGENASE [1]: 170 u/L | LIPASE [1]: 15 u/L | PHOSPHORUS [1]: 11.33 mg/dL | POTASSIUM [1]: 6.08 MEQ/L | SODIUM [1]: 142.45 MEQ/L | TOTAL BILIRUBIN [1]: 0.17 mg/dL | TOTAL PROTEIN [1]: 5.67 G/DL | URIC ACID [1]: 1 mg/dL | ABSOLUTE BASOPHIL [2]: 0 CELLS/uL | ABSOLUTE EOSINOPHIL [2]: 0 CELLS/uL | ABSOLUTE LYMPHOCYTE [2]: 12900 CELLS/uL | ABSOLUTE MONOCYTE [2]: 131.67 CELLS/uL | ABSOLUTE SEGMENTED NEUTROPHIL [2]: 1068.33 CELLS/uL | BASOPHIL [2]: 0% | EOSINOPHIL [2]: 0% | HEMATOCRIT [2]: 34.63% | HEMOGLOBIN [2]: 14.03 G/DL | LEUKOCYTE COUNT [2]: 14.1 x10E3/uL | LYMPHOCYTE [2]: 91.67% | MEAN CORPUSCULAR HEMOGLOBIN [2]: 25.73 pg | MEAN CORPUSCULAR HEMOGLOBIN CONCENTRATION [2]: 40.5 G/DL | MEAN CORPUSCULAR VOLUME [2]: 63.57 fL | MONOCYTE [2]: 1% | NEUTROPHIL [2]: 7.33% | NUCLEATED RED BLOOD CELLS [2]: 0 /100WBC | PLATELET COUNT [2]: 1083 x10E3/uL | ALANINE AMINOTRANSFERASE [2]: 51 u/L | ALBUMIN [2]: 4.17 G/DL | ALKALINE PHOSPHATASE [2]: 383.33 u/L | ASPARTATE AMINOTRANSFERASE [2]: 81.33 u/L | BLOOD UREA NITROGEN [2]: 16.33 mg/dL | CARBON DIOXIDE [2]: 25.67 mmol/L | CHLORIDE [2]: 102 MEQ/L | CHOLESTEROL [2]: 77.33 mg/dL | CREATINE PHOSPHOKINASE [2]: 323.67 u/L | CREATININE [2]: 0.18 mg/dL | GLUCOSE [2]: 144 mg/dL | LACTATE DEHYDROGENASE [2]: 223.33 u/L | LIPASE [2]: 11.33 u/L | PHOSPHORUS [2]: 10.8 mg/dL | POTASSIUM [2]: 6.15 MEQ/L | SODIUM [2]: 143.13 MEQ/L | TOTAL BILIRUBIN [2]: 0.17 mg/dL | TOTAL PROTEIN [2]: 5.77 G/DL | URIC ACID [2]: 1.17 mg/dL | ABSOLUTE BASOPHIL [3]: 0 CELLS/uL | ABSOLUTE EOSINOPHIL [3]: 71.67 CELLS/uL | ABSOLUTE LYMPHOCYTE [3]: 13503.67 CELLS/uL | ABSOLUTE MONOCYTE [3]: 143.33 CELLS/uL | ABSOLUTE SEGMENTED NEUTROPHIL [3]: 1014.67 CELLS/uL | BASOPHIL [3]: 0% | EOSINOPHIL [3]: 0.33% | HEMATOCRIT [3]: 37.23% | HEMOGLOBIN [3]: 14.77 G/DL | LEUKOCYTE COUNT [3]: 14.73 x10E3/uL | LYMPHOCYTE [3]: 92.33% | MEAN CORPUSCULAR HEMOGLOBIN [3]: 23.97 pg | MEAN CORPUSCULAR HEMOGLOBIN CONCENTRATION [3]: 39.67 G/DL | MEAN CORPUSCULAR VOLUME [3]: 60.4 fL | MONOCYTE [3]: 0.67% | NEUTROPHIL [3]: 6.67% | NUCLEATED RED BLOOD CELLS [3]: 0 /100WBC | PLATELET COUNT [3]: 1422.33 x10E3/uL | ALANINE AMINOTRANSFERASE [3]: 42.33 u/L | ALBUMIN [3]: 4.2 G/DL | ALKALINE PHOSPHATASE [3]: 358.33 u/L | ASPARTATE AMINOTRANSFERASE [3]: 92.33 u/L | BLOOD UREA NITROGEN [3]: 16.33 mg/dL | CARBON DIOXIDE [3]: 22.67 mmol/L | CHLORIDE [3]: 103.67 MEQ/L | CHOLESTEROL [3]: 58 mg/dL | CREATINE PHOSPHOKINASE [3]: 803 u/L | CREATININE [3]: 0.18 mg/dL | GLUCOSE [3]: 168 mg/dL | LACTATE DEHYDROGENASE [3]: 310 u/L | LIPASE [3]: 11.33 u/L | PHOSPHORUS [3]: 12.4 mg/dL | POTASSIUM [3]: 6.38 MEQ/L | SODIUM [3]: 143.4 MEQ/L | TOTAL BILIRUBIN [3]: 0.13 mg/dL | TOTAL PROTEIN [3]: 5.9 G/DL | URIC ACID [3]: 2.07 mg/dL | ABSOLUTE BASOPHIL [4]: 0 CELLS/uL | ABSOLUTE EOSINOPHIL [4]: 46.33 CELLS/uL | ABSOLUTE LYMPHOCYTE [4]: 13529.67 CELLS/uL | ABSOLUTE MONOCYTE [4]: 94 CELLS/uL | ABSOLUTE SEGMENTED NEUTROPHIL [4]: 1530 CELLS/uL | BASOPHIL [4]: 0% | EOSINOPHIL [4]: 0.33% | HEMATOCRIT [4]: 35.97% | HEMOGLOBIN [4]: 14.07 G/DL | LEUKOCYTE COUNT [4]: 15.2 x10E3/uL | LYMPHOCYTE [4]: 88.67% | MEAN CORPUSCULAR HEMOGLOBIN [4]: 23.57 pg | MEAN CORPUSCULAR HEMOGLOBIN CONCENTRATION [4]: 39.13 G/DL | MEAN CORPUSCULAR VOLUME [4]: 60.3 fL | MONOCYTE [4]: 0.67% | NEUTROPHIL [4]: 10.33% | NUCLEATED RED BLOOD CELLS [4]: 0.33 /100WBC | PLATELET COUNT [4]: 1209.33 x10E3/uL | ALANINE AMINOTRANSFERASE [4]: 53 u/L | ALBUMIN [4]: 4.13 G/DL | ALKALINE PHOSPHATASE [4]: 352.33 u/L | ASPARTATE AMINOTRANSFERASE [4]: 80.33 u/L | BLOOD UREA NITROGEN [4]: 17.33 mg/dL | CARBON DIOXIDE [4]: 23 mmol/L | CHLORIDE [4]: 103.33 MEQ/L | CHOLESTEROL [4]: 69 mg/dL | CREATINE PHOSPHOKINASE [4]: 224.67 u/L | CREATININE [4]: 0.18 mg/dL | GLUCOSE [4]: 201.67 mg/dL | LACTATE DEHYDROGENASE [4]: 239 u/L | LIPASE [4]: 11.33 u/L | PHOSPHORUS [4]: 11.33 mg/dL | POTASSIUM [4]: 6.19 MEQ/L | SODIUM [4]: 143.37 MEQ/L | TOTAL BILIRUBIN [4]: 0.2 mg/dL | TOTAL PROTEIN [4]: 5.63 G/DL | URIC ACID [4]: 1.4 mg/dL
